Assay results: patent US5462954A, “Substituted phenyl phenol leukotriene antagonists” (Eli Lilly and Company, priority 1994, dated 1995)
Counter-ions that a name gives are not always drawn.

biological target: binding of tritiated LTB4 to guinea pig lung membranes (Cavia porcellus, UniProt H0VYV8); assay: biochemical; settings: inhibition of [3H]-LTB4 binding, guinea pig lung membranes; mean of n experiments; ~140 pM [3H]-LTB4, 45 minutes, 30° C., pH 6.5
Sequence (H0VYV8 1-348): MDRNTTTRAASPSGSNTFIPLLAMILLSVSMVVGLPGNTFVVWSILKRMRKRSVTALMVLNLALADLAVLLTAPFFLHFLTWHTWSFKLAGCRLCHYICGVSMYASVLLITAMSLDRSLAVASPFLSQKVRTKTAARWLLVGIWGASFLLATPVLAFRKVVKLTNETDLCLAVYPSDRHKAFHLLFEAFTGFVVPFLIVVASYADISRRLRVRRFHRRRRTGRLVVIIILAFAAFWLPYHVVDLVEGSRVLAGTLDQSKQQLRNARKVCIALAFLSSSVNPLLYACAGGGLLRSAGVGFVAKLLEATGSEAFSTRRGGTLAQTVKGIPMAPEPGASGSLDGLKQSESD

Structure (SMILES) | pKi (mean -log Ki)
CCc1cc(-c2ccc(F)cc2)c(O)cc1OCCCOc1cccc(C(=O)c2ccccc2C(=O)O)c1 [Example 97, 2-[3-[3-[2-Ethyl-5-hydroxy-4-(4-fluorophenyl)phenoxy]propoxy]benzoyl]benzoic acid disodium salt hemihydrate] | 7.67

same assay, conditions: read-out: pKi (mean -log Ki) (converted)

Structure (SMILES) | Ki [nM]
CCc1cc(-c2ccc(F)cc2)c(O)cc1OCCCOc1cccc(OCCCCC(=O)O)c1CCC(=O)O [Example 5, 3-(2-(3-(2-Ethyl-4-(4-fluorophenyl)-5-hydroxyphenoxy)propoxy)-6-(4-carboxybutyloxy)phenyl)propionic acid] | 0.55
CCc1cc(-c2ccc(F)cc2)c(O)cc1OCCCOc1ccc2c(=O)c3cc(C(=O)O)ccc3oc2c1CCC(=O)O [Example 67, 3-[4-[7-Carboxy-9-oxo-3-[3-[2-ethyl-4-(4-fluorophenyl)-5-hydroxyphenoxy]propoxy]-9H-xanthene]] propanoic acid disodium salt trihydrate] | 0.024
CCc1cc(-c2ccc(F)cc2)c(O)cc1OCCCOc1cccc(OCCCCSC)c1CCC(=O)O [Example 15, 3-(2-(3-(2-Ethyl-4-(4-fluorophenyl)-5-hydroxyphenoxy)propoxy)-6-(4-methylthiobutyloxy)phenyl)propionic acid] | 5.89
CCc1cc(-c2ccc(F)cc2)c(O)cc1OCCCOc1cccc(OC)c1CCC(=O)O [Example 6, 3-(2-(3-(2-Ethyl-4-(4-fluorophenyl)-5-hydroxyphenoxy)propoxy)-6-methoxyphenyl)propionic acid] | 5.01
CCCc1c(OCCCCCOc2cc(O)c(-c3ccc(F)cc3)cc2CC)cccc1Oc1ccccc1C(=O)O [Example 72, 2-[2-Propyl-3-[5-[2-ethyl-5-hydroxy-4-(4-fluorophenyl)phenoxy]pentoxy]phenoxy]benzoic acid] | 6.61
CCCCOc1cccc(OCCCOc2cc(O)c(-c3ccc(F)cc3)cc2CC)c1CCC(=O)O [Example 14, 3-(2-(3-(2-Ethyl-4-(4-fluorophenyl)-5-hydroxyphenoxy)propoxy)-6-(4-butyloxy)phenyl)propionic acid] | 30.2
CCc1cc(-c2ccc(F)cc2)c(O)cc1OCCCOc1ccccc1CCc1nnn[nH]1 [Example 89, 5-(2-(2-(3-(2-Ethyl-4-(4-fluorophenyl)-5-hydroxyphenoxy)propoxy)phenyl)ethyl)-1H-tetrazole] | 14.1
CCCc1c(OCCCOc2cc(O)c(-c3ccc(F)cc3)cc2CC)cccc1C(=O)c1ccccc1C(=O)O [Example 78, 2-[2-Propyl-3-[3-[2-ethyl-5-hydroxy-4-(4-fluorophenyl)phenoxy]propoxy]benzoyl]benzoic acid] | 9.55
CCc1cc(-c2ccc(F)cc2)c(O)cc1OCCCOc1ccc2c(c1CCC(=O)O)CC(CC(=O)O)C2=O (centres unmarked) [Example 52, 3-(4-(5-(4-(4-Fluorophenyl)-5-hydroxy-2-ethylphenoxy)propoxy)-2-carboxymethyl-2,3-dihydroinden-1(2H)-one)propanoic acid] | 0.263
CCc1cc(-c2ccc(F)cc2)c(O)cc1OCCCOc1ccc(C#CCCC(=O)O)cc1CCC(=O)O [Example 83, 5-[3-[2-(1-Carboxy)ethyl]-4-[3-[2-ethyl-4-(4-fluorophenyl)-5-hydroxyphenoxy]propoxy]phenyl]-4-pentynoic acid disodium salt 0.4 hydrate] | 0.0661
CCCc1c(Cc2ccccc2C(=O)O)cccc1OCCCOc1cc(O)c(-c2ccc(F)cc2)cc1CC [Example 79, 2-[[2-Propyl-3-[3-[2-ethyl-5-hydroxy-4-(4-fluorophenyl)phenoxy]propoxy]phenyl]methyl]benzoic acid] | 10.5
CCCc1c(OCCCOc2cc(O)c(-c3ccc(F)cc3)cc2CC)cccc1Oc1cccc(F)c1C(=O)O [Example 70, 2-Fluoro-6-[2-propyl-3-[3-[2-ethyl-5-hydroxy-4-(4-fluorophenyl)phenoxy]propoxy]phenoxy]benzoic acid disodium salt hydrate] | 8.13
O=C(O)CCc1ccccc1OCCCOc1cc(O)c(-c2ccc(F)cc2)cc1Br [Example 30, 3-(2-(3-(2-Bromo-4-(4-fluorophenyl)-5-hydroxyphenoxy)propoxy)phenyl)propionic acid] | 186
